Measurements published in patent publication US20120308673A1, “COMPOSITION COMPRISING THE EXTRACT OF PRUNELLA VULGARIS L. FOR PREVENTING AND TREATING ADHD DISEASE AND THE USE THEREOF” (priority 2009, published 2012).

Assays:
[1] = system: SHR animal model; test: Effect on alternation behavior of SHR animal model (modified Y-maze test); format: in vivo, rat; details: 8 min period, dose dependent, p<0.05, FIG. 3
Procedure: To test the inhibitory effect of the extract of […] prepared in Example 1 on the alternation behavior of SHR animals, following modified Y-maze test was performed according to the procedure disclosed in the literature (Sarter M., et al., Attenuation of scopolamine-induced impairment of spontaneous alternation by antagonist but not agonist and agonist beta-carbolines, (1988), Psychopharmacology (Berl). 94:491-495; Kim D. H. et al, Gomisin A improves scopolamine-induced memory impairment in mice, (2006), Eur. J. Pharmacol., 542:129-235).
The Y-maze test was conducted in a three-arm maze with angles of 120° between the arms designates as A, B and C respectively, which were 42 cm long and 3 cm wide with walls that were 12 cm high each. The maze floor and walls were constructed from dark opaque polyvinyl plastic. Mice were initially placed within one arm and the sequence and number of arm entries were recorded manually for each mouse over an 8 min period. The percentage of triads in which all the arms were represented, i.e., ABC, CAB or BCA but not BAB, was recorded as an ‘alternation’ to estimate short-term memory. Control group animals received 0.9% saline solution and scopolamine (1 mg/kg, i.p.) or vehicle was introduced to induce memory impairment 30 mins before the test. […] The alternation score (%) for each mouse was calculated according to following math formula 1: […]

[2] = system: SHR animal model; test: Effect on hyperactivity of SHR animal model (total movement distance and duration in test box); format: in vivo, rat; details: 3 mg/kg intraperitoneally, 30 mins after treatment, recorded for 10 mins
Procedure: To test the inhibitory effect of the extract of […] prepared in Example 1 on the hyperactivity of SHR animals, following test was performed according to the procedure disclosed in the literature (Kong, W. X et al., Effect on taurine on rat behaviors in three anxiety models, (2006), Pharmacology Biochem., Behavior 83:271-276; Arulmozhi D. K. et al, Pharmacological studies of the aqueous extract of Sapindus trifoliatus on central nervous system: possible ant-migraine mechanism, J. Ethnophamacol., 97:491-496).
The rats were acclimated with the environment for 1 week and with apparatus more than once for 10 mins prior to test. PV70E and PVW prepared in Example 1 used as test groups as well as methylphenidate (Johnson Mattey Public Limited Co.) used as a positive control were intraperitoneally administered into mice in a dose of 3 mg/kg.
30 mins after the treatment with test samples, the SHR mice, i.e., ADHD animal models, and normal mice used as negative control were placed on the test box to examine the movement of mice and to determine the total movement distance and total movement duration of the mice for 10 mins using by analysis apparatus (EthoVision system; Noldus IT b.v., Netherland).

With `COC(=O)C(c1ccccc1)C1CCCCN1` (stereo not drawn) [methylphenidate] the “alternation behavior of SHR” value [1] was “inhibiting effect”, the “general movement of SHR (total movement distance and rearing number)” value ([2]; SHR, FIGS. 1 and 2) was “did not affect” and the “movement of normal mice” value ([2]; normal mice) was “increased the movement”.
